PubChem BioAssay (NCI)
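Five concentrations, 48 hours, 96-well plates. GI50 is the concentration that inhibits growth by half. TGI: concentration producing complete growth inhibition.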

How the values were obtained:
Assay in all cases: NCI-60 cell line screen, 48 h
[1] = system: NCI/ADR-RES ovarian
[2] = system: OVCAR-3 ovarian
[3] = system: TK-10 renal
[4] = system: CAKI-1 renal
[5] = system: OVCAR-4 ovarian
[6] = system: NCI-H226 lung
[7] = system: SW-620 colon
[8] = system: COLO 205 colon
[9] = system: MDA-MB-435
[10] = system: RXF 393 renal
[11] = system: K-562 leukemia
[12] = system: SK-OV-3 ovarian
[13] = system: IGROV1 ovarian
[14] = system: SF-268 CNS
[15] = system: MALME-3M melanoma
[16] = system: CCRF-CEM leukemia
[17] = system: HL-60(TB) leukemia
[18] = system: 786-0 renal
[19] = system: NCI-H522 lung
[20] = system: UACC-257 melanoma
[21] = system: M14 melanoma
[22] = system: T-47D breast
[23] = system: EKVX NSCLC
[24] = system: KM12 colon
[25] = system: RPMI-8226 leukemia
[26] = system: MCF7 breast
[27] = system: NCI-H23 lung
[28] = system: HS 578T breast
[29] = system: MDA-MB-468 breast
[30] = system: U251 CNS
[31] = system: SN12C renal
[32] = system: A498 renal
[33] = system: HOP-62 NSCLC
[34] = system: A549 NSCLC
[35] = system: HCT-15 colon
[36] = system: ACHN renal
[37] = system: HCT-116 colon
[38] = system: PC-3 prostate
[39] = system: BT-549 breast
[40] = system: OVCAR-5 ovarian
[41] = system: SNB-75 CNS
[42] = system: MOLT-4 leukemia
[43] = system: HT29 colon
[44] = system: UACC-62 melanoma
[45] = system: HOP-92 NSCLC
[46] = system: OVCAR-8 ovarian
[47] = system: DU-145 prostate
[48] = system: SK-MEL-2 melanoma
[49] = system: LOX IMVI melanoma
[50] = system: SK-MEL-5 melanoma
[51] = system: SF-295 CNS
[52] = system: SNB-19 CNS
[53] = system: HCC-2998 colon
[54] = system: NCI-H460 lung
[55] = system: SF-539 CNS

Clc1ccc(/C=N/Nc2ncnc3sc4c(c23)CCN(Cc2ccccc2)C4)cc1
GI50 [1]: 2.34 µM | TGI [1]: 5.84 µM | GI50 [2]: 2.49 µM | TGI [2]: 5.33 µM | GI50 [3]: 20.8 µM | TGI [3]: 41.9 µM | GI50 [4]: > 100 µM | TGI [4]: > 100 µM | GI50 [5]: 2.76 µM | TGI [5]: 7.52 µM | GI50 [6]: 2.31 µM | TGI [6]: 7.41 µM | GI50 [7]: 3.85 µM | TGI [7]: 31.9 µM | GI50 [8]: 3.52 µM | TGI [8]: 12.9 µM | GI50 [9]: 7.26 µM | TGI [9]: > 100 µM | GI50 [10]: 10.2 µM | TGI [10]: 26.6 µM | GI50 [11]: 4.16 µM | TGI [11]: 54.9 µM | GI50 [12]: 20.8 µM | TGI [12]: 78.4 µM | GI50 [13]: 20.1 µM | TGI [13]: > 100 µM | GI50 [14]: 8.38 µM | TGI [14]: > 100 µM | GI50 [15]: 4.96 µM | TGI [15]: > 100 µM | GI50 [16]: 3.51 µM | TGI [16]: 25.5 µM | GI50 [17]: 5.59 µM | TGI [17]: 43 µM | GI50 [18]: 3.85 µM | TGI [18]: 14.8 µM | GI50 [19]: 23.9 µM | TGI [19]: > 100 µM | GI50 [20]: 9.6 µM | TGI [20]: 76.9 µM | GI50 [21]: 2.65 µM | TGI [21]: 7.66 µM | GI50 [22]: 22.5 µM | TGI [22]: > 100 µM | GI50 [23]: 65.6 µM | TGI [23]: > 100 µM | GI50 [24]: 11.9 µM | TGI [24]: > 100 µM | GI50 [25]: 5.39 µM | TGI [25]: 84.9 µM | GI50 [26]: 2.98 µM | TGI [26]: 15 µM | GI50 [27]: 12 µM | TGI [27]: > 100 µM | GI50 [28]: 6.33 µM | TGI [28]: > 100 µM | GI50 [29]: 3.72 µM | TGI [29]: 15.8 µM | GI50 [30]: 4 µM | TGI [30]: 16.6 µM | GI50 [31]: 9.09 µM | TGI [31]: > 100 µM | GI50 [32]: 25.8 µM | TGI [32]: 59.2 µM | GI50 [33]: 4.8 µM | TGI [33]: 25.2 µM | GI50 [34]: 12.1 µM | TGI [34]: > 100 µM | GI50 [35]: 4.04 µM | TGI [35]: 25.2 µM | GI50 [36]: 15.8 µM | TGI [36]: > 100 µM | GI50 [37]: 3.04 µM | TGI [37]: 10.4 µM | GI50 [38]: 3.63 µM | TGI [38]: 32.5 µM | GI50 [39]: 23.4 µM | TGI [39]: > 100 µM | GI50 [40]: 20.9 µM | TGI [40]: > 100 µM | GI50 [41]: 3.21 µM | TGI [41]: 41.2 µM | GI50 [42]: 4.53 µM | TGI [42]: 34.5 µM | GI50 [43]: 3.37 µM | TGI [43]: 13.7 µM | GI50 [44]: 30.5 µM | TGI [44]: > 100 µM | GI50 [45]: 2.4 µM | TGI [45]: 6.7 µM | GI50 [46]: 1.95 µM | TGI [46]: 3.99 µM | GI50 [47]: 5.67 µM | TGI [47]: > 100 µM | GI50 [48]: 16 µM | TGI [48]: 42.7 µM | GI50 [49]: 2.9 µM | TGI [49]: 9.74 µM | GI50 [50]: 18.6 µM | TGI [50]: > 100 µM | GI50 [51]: 4.19 µM | TGI [51]: 21.6 µM | GI50 [52]: 6.06 µM | TGI [52]: > 100 µM | GI50 [53]: 10.7 µM | TGI [53]: > 100 µM | GI50 [54]: 2.26 µM | TGI [54]: 4.88 µM | GI50 [55]: 4.1 µM | TGI [55]: 18.2 µM
